Key:
[1] = biological target: C-C chemokine receptor type 5 (Homo sapiens, UniProt P51681); experiment: Inhibition of [125I]RANTES binding to CCR5 receptor.
[2] = system: Human immunodeficiency virus 1; experiment: Inhibition of HIV-1 (ADA) entry into U-87 (human glioblastoma) cells.; assay type: functional, organism-based; details: Human immunodeficiency virus 1, U-87 MG
[3] = Area under curve after peroral administration at 10 mg/kg in rat for 0-6 h; assay type: ADME, organism-based; design: time < 6 hr, dose 10 mg/kg, route oral; details: in vivo, po

C-C chemokine receptor type 5, sequence (P51681 whole entry): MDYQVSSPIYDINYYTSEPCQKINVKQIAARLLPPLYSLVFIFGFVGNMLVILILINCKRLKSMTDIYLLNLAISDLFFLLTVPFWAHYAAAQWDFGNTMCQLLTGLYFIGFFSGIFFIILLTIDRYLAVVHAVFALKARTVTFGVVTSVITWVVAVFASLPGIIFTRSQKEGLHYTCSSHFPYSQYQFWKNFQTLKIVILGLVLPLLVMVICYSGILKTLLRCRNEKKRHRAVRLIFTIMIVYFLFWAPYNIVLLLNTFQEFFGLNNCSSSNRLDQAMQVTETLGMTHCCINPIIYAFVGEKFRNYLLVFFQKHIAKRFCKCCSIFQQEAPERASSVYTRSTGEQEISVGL

SMILES: CCO/N=C(/c1ccc(Br)cc1)C1CCN(C2(C)CCN(C(=O)c3c(C)nc(C4CC4)nc3C)CC2)CC1
- Ki [1]: 25 nM

SMILES: CCO/N=C(/c1ccc(Br)cc1)C1CCN(C2(C)CCN(C(=O)c3c(C)nc(C(C)C)nc3C)CC2)CC1
- Ki [1]: 43 nM

SMILES: CCO/N=C(/c1ccc(Br)cc1)C1CCN(C2(C)CCN(C(=O)c3c(C)nc(NC(C)=O)nc3C)CC2)CC1
- Ki [1]: 60 nM

SMILES: CCCO/N=C(/c1ccc(Br)cc1)C1CCN(C2(C)CCN(C(=O)c3c(C)ncnc3C)CC2)CC1
- IC50 [2]: 0.89 nM
- Ki [1]: 2 nM
- AUC at 6 h [3]: 1600 ng·h/mL

SMILES: CCO/N=C(/c1ccc(Br)cc1)C1CCN(C2(C)CCN(C(=O)c3c(C)nc(SC)nc3C)CC2)CC1
- Ki [1]: 1.3 nM
- AUC at 6 h [3]: 400 ng·h/mL

SMILES: CCO/N=C(/c1ccc(Br)cc1)C1CCN(C2(C)CCN(C(=O)c3c(C)nc(C(F)(F)F)nc3C)CC2)CC1
- IC50 [2]: 0.26 nM
- Ki [1]: 3.2 nM
- AUC at 6 h [3]: 2000 ng·h/mL

SMILES: Cc1ncnc(C)c1C(=O)N1CCC(C)(N2CCC(/C(=N\OC(C)C)c3ccc(Br)cc3)CC2)CC1
- IC50 [2]: 0.28 nM
- Ki [1]: 3.3 nM
- AUC at 6 h [3]: 2400 ng·h/mL

SMILES: Cc1ncnc(C)c1C(=O)N1CCC(C)(N2CCC(/C(=N\OCC(F)(F)F)c3ccc(Br)cc3)CC2)CC1
- IC50 [2]: 3.8 nM
- Ki [1]: 14 nM
- AUC at 6 h [3]: 6900 ng·h/mL

SMILES: CCO/N=C(/c1ccc(Br)cc1)C1CCN(C2(C)CCN(C(=O)c3c(C)nc(N)nc3C)CC2)CC1
- IC50 [2]: 0.35 nM
- Ki [1]: 5.7 nM
- AUC at 6 h [3]: 3100 ng·h/mL

SMILES: CO/N=C(\c1ccc(Br)cc1)C1CCN(C2(C)CCN(C(=O)c3c(C)ncnc3C)CC2)CC1
- IC50 [2]: 1.83 nM
- Ki [1]: 4.7 nM
- AUC at 6 h [3]: 4100 ng·h/mL

SMILES: CCO/N=C(\c1ccc(Br)cc1)C1CCN(C2(C)CCN(C(=O)c3c(C)c[n+]([O-])cc3C)CC2)CC1
- IC50 [2]: 0.4 nM
- Ki [1]: 8.8 nM
- AUC at 6 h [3]: 1600 ng·h/mL

SMILES: CCO/N=C(\c1ccc(Br)cc1)C1CCN(C2(C)CCN(C(=O)c3c(Br)c[n+]([O-])cc3Br)CC2)CC1
- IC50 [2]: 1.24 nM
- Ki [1]: 0.7 nM
- AUC at 6 h [3]: 4400 ng·h/mL

SMILES: CCO/N=C(\c1ccc(Br)cc1)C1CCN(C2(C)CCN(C(=O)c3c(C)cncc3C)CC2)CC1
- Ki [1]: 2.3 nM
- AUC at 6 h [3]: 1300 ng·h/mL

SMILES: CCO/N=C(\c1ccc(Br)cc1)C1CCN(C2(C)CCN(C(=O)c3c(Cl)c[n+]([O-])cc3Cl)CC2)CC1
- IC50 [2]: 0.15 nM
- Ki [1]: 1.2 nM
- AUC at 6 h [3]: 3900 ng·h/mL

SMILES: CCO/N=C(/c1ccc(Br)cc1)C1CCN(C2(C)CCN(C(=O)c3c(C)nc(C)nc3C)CC2)CC1
- IC50 [2]: 0.93 nM
- Ki [1]: 2.1 nM
- AUC at 6 h [3]: 2700 ng·h/mL

SMILES: Cc1ncnc(C)c1C(=O)N1CCC(C)(N2CCC(/C(=N\OCC(C)C)c3ccc(Br)cc3)CC2)CC1
- IC50 [2]: 1.17 nM
- Ki [1]: 8.1 nM
- AUC at 6 h [3]: 600 ng·h/mL

SMILES: CCO/N=C(/c1ccc(Br)cc1)C1CCN(C2(C)CCN(C(=O)c3c(C)nc(NS(C)(=O)=O)nc3C)CC2)CC1
- Ki [1]: 315 nM

SMILES: CCO/N=C(/c1ccc(Br)cc1)C1CCN(C2(C)CCN(C(=O)c3c(C)nc(OC)nc3C)CC2)CC1
- IC50 [2]: 0.13 nM
- Ki [1]: 5.3 nM
- AUC at 6 h [3]: 1800 ng·h/mL

SMILES: Cc1ncnc(C)c1C(=O)N1CCC(C)(N2CCC(/C(=N\OCC3CC3)c3ccc(Br)cc3)CC2)CC1
- Ki [1]: 11 nM
- AUC at 6 h [3]: 3700 ng·h/mL

SMILES: CCO/N=C(\c1ccc(Br)cc1)C1CCN(C2(C)CCN(C(=O)c3c(Br)cncc3Br)CC2)CC1
- IC50 [2]: 1.04 nM
- AUC at 6 h [3]: 500 ng·h/mL

SMILES: CCO/N=C(\c1ccc(Br)cc1)C1CCN(C2(C)CCN(C(=O)c3c(Cl)cncc3Cl)CC2)CC1
- IC50 [2]: 0.69 nM
- AUC at 6 h [3]: 500 ng·h/mL

SMILES: CCO/N=C(\c1ccc(Br)cc1)C1CCN(C2(C)CCN(C(=O)c3c(C)ncnc3C)CC2)CC1
- IC50 [2]: 0.36 nM
- Ki [1]: 2.2 nM
- AUC at 6 h [3]: 3100 ng·h/mL

SMILES: COC[C@@H](c1ccc(C(F)(F)F)cc1)N1CCN(C2(C)CCN(C(=O)c3c(C)ncnc3C)CC2)C[C@@H]1C [VICRIVIROC]
- IC50 [2]: 0.6 nM
- AUC at 6 h [3]: 6500 ng·h/mL
